# Source: ChEMBL document CHEMBL1201862, “PubChem BioAssay data set” (2004)
# The source made the active and inactive calls.
# Experiments:
# [1] = Vero E6 cell cytotoxicity, dose response, cytotoxicity control for non-replicating M. tuberculosis project, secondary assay (AID 492998); format: functional, VeroE6; conditions: Vero C1008
# [2] = tested on: H4; test: Luminescence Cell-Based Dose Response HTS to Identify Activators of 5'UTR Stem-Loop Driven Prion Protein mRNA Translation in H4 Neuroglioblastoma Cells. [Related pubchem assays: 1829 (Project Summary), 1814 (Primary HTS)]; format: functional; conditions: Homo sapiens
# [3] = target: T1, Sphingosine 1-phosphate receptor 4 (Homo sapiens, UniProt O95977); test: Late stage fluorescence dose response cell-based screening assay for antagonists of the Sphingosine 1-Phosphate Receptor 4 (S1P4). [Related pubchem assays: 1524 (Confirmation screen (S1P4 antagonists).), 1510 (Primary screen (S1P4 antagonists).), 1853 (Summary AID (S1P4 antagonists).), 1692 (Dose response screen (S1P4 antagonists).)]; format: functional
# T1 sequence (O95977 whole entry): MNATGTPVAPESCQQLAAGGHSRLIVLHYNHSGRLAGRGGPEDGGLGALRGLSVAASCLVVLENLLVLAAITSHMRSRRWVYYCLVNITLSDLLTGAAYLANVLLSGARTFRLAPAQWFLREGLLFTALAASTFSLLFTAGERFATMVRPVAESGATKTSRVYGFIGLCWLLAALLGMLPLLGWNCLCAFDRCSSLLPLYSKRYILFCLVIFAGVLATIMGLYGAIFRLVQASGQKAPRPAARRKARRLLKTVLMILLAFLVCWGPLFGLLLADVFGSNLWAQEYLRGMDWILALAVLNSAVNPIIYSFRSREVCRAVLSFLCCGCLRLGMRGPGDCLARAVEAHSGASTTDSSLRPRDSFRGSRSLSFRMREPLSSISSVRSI
# [4] = target: Sphingosine 1-phosphate receptor 1 (Homo sapiens, UniProt P21453); format: functional;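 further: Tango beta-arrestin reporter U2OS cells stimulated with S1P near its EC80; inhibitor potency meaning antagonism of receptor activation by the natural agonist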
# Sequence of Sphingosine 1-phosphate receptor 1 (P21453 whole entry, the tested form may be a part): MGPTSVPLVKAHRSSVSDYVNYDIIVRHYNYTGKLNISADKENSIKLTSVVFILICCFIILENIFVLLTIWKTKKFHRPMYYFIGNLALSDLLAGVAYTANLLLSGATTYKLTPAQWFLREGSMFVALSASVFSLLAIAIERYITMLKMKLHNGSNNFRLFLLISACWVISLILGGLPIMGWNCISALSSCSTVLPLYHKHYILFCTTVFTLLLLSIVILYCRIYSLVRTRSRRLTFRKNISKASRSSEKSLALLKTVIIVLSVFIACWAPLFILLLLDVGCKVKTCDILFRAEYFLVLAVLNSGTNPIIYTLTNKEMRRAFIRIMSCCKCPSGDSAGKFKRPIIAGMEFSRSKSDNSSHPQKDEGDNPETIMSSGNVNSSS
# [5] = tested on: CHO; test: CHO cell viability loss, potency – luminescence, cytotoxicity control for TLR9-MyD88 binding inhibitor project, dose response (AID 588339); format: functional, cell-based, hamster; conditions: Cricetulus griseus;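 further: CHO cells stably coexpressing TLR9 and MyD88 fusions from primary screen; compound exposure lasted 48 hours before viability readout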
# [6] = target: T1, Sphingosine 1-phosphate receptor 4; test: Fluorescence dose response cell-based high throughput screening assay for antagonists of the Sphingosine 1-Phosphate Receptor 4 (S1P4). [Related pubchem assays: 1524 (Confirmation in triplicates.), 1510 (Primary screen.)]; format: functional
# [7] = Luminescence Cell-Based Dose Confirmation HTS to Identify Activators of 5'UTR Stem-Loop Driven Alpha-Synuclein mRNA Translation in H4 Neuroglioblastoma Cells. [Related pubchem assays: 1829 (Project Summary), 1814 (Primary HTS)]; format: functional
# [8] = target: Large T antigen (Simian virus 40, UniProt P03070); format: functional, Betapolyomavirus macacae;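 further: Confirmatory-stage PubChem screen for compounds that inhibit SV40 T antigen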
# Sequence of Large T antigen (P03070 whole entry): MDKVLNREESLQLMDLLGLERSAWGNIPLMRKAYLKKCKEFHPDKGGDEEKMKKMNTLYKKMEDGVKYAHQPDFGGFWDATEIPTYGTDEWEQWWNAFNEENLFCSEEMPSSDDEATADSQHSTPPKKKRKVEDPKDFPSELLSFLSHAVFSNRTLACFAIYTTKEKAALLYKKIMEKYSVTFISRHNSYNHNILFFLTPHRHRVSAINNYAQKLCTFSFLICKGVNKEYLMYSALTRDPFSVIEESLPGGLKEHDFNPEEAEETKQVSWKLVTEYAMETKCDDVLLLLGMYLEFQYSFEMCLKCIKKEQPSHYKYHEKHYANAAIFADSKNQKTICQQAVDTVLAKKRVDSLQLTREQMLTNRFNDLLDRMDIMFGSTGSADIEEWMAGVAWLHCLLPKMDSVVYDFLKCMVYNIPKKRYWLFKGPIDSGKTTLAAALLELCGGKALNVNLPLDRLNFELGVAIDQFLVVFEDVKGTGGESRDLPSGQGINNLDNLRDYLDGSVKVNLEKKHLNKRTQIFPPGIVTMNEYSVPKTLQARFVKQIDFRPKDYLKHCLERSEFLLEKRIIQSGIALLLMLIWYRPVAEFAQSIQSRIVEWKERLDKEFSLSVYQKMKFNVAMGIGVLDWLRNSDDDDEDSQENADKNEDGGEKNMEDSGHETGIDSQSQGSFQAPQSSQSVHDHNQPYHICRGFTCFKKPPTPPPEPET
# [9] = THP-1 cell cytotoxicity, dose response, cytotoxicity control for non-replicating M. tuberculosis project (AID 489025); format: functional
# [10] = reduced cellular PGC1a acetyl-lysine signal – cell-based, cherry-picked samples, dose response (AID 720514); format: functional;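 further: potency may reflect raised or lowered acetylation signal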
# [11] = target: T2, Histone-lysine N-methyltransferase NSD2 (Homo sapiens, UniProt O96028); format: biochemical
# T2 sequence (O96028 whole entry): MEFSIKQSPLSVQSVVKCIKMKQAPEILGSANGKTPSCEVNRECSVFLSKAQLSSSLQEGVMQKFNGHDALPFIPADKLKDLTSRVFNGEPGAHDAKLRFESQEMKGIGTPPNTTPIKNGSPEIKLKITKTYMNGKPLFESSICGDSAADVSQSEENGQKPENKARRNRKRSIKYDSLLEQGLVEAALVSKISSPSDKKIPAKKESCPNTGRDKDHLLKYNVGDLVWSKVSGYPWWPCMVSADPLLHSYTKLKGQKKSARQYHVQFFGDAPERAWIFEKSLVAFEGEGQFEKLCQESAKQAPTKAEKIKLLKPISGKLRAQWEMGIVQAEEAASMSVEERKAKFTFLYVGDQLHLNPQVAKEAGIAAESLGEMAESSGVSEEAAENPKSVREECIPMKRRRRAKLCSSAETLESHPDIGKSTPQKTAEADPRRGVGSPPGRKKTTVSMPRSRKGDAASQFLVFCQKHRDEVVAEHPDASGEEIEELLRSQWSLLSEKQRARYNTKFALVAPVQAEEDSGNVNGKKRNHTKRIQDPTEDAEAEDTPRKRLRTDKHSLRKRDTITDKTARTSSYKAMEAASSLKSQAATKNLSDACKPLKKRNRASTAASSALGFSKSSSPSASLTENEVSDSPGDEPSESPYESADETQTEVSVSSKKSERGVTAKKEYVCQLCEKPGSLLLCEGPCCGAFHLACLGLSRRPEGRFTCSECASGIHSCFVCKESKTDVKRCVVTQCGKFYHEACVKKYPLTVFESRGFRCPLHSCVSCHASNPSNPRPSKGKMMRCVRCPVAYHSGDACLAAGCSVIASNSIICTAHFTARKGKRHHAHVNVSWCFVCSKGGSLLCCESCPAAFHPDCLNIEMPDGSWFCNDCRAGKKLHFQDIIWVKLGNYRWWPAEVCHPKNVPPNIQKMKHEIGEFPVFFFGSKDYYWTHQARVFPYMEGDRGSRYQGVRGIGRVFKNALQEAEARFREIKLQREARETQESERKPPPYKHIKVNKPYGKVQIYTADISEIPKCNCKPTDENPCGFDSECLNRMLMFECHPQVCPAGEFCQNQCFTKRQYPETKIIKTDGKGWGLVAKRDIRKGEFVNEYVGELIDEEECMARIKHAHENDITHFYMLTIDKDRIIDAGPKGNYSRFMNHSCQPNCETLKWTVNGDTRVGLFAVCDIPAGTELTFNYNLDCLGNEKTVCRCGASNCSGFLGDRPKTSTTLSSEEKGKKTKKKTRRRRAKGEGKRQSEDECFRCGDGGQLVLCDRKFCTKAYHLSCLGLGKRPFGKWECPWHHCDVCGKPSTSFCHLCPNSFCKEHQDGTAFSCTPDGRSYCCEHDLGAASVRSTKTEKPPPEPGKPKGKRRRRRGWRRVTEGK
# [12] = target: T3, SUMO-activating enzyme (Homo sapiens, UniProt Q9UBT2); test: blockers of UBC9-mediated SUMO conjugation – biochemical, AlphaScreen, SUMOylation inhibitor project, confirmation (AID 2018); format: functional
# T3 sequence (Q9UBE0 whole entry): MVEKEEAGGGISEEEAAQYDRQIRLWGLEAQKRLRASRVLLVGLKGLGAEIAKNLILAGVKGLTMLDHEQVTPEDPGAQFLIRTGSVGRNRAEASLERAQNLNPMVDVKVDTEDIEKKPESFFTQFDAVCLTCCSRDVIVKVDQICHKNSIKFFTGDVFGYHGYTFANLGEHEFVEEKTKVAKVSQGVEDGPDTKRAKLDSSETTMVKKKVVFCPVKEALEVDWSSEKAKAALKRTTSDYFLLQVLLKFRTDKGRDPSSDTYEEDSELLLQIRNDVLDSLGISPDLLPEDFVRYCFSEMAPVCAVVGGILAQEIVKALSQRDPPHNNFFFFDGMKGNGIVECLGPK
# T3 sequence (Q9UBT2 whole entry): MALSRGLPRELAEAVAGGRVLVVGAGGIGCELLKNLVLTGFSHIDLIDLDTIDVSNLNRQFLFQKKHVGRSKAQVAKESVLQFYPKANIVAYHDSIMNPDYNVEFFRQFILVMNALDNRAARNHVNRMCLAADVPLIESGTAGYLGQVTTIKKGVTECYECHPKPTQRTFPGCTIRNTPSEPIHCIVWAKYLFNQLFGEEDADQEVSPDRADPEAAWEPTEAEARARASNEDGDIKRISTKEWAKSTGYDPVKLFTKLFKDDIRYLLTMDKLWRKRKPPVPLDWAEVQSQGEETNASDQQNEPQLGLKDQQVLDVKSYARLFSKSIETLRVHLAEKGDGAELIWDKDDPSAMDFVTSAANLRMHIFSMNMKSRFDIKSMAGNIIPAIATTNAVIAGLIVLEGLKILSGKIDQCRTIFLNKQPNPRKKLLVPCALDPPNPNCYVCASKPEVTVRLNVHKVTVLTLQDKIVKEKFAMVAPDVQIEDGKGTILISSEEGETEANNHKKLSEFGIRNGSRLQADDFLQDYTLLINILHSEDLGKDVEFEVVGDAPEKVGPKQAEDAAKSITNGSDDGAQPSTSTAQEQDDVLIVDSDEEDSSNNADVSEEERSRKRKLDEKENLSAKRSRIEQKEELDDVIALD
# [13] = target: T3, SUMO-activating enzyme; test: blockers of SAE1/SAE2–UBC9 SUMO transfer – biochemical, HTRF, uHTS, primary screen (AID 2006); format: protein-complex assay
smiles,measurement,setting,value
O=C(Nc1ccccc1)c1nnsc1[S+]([O-])c1ccc(Cl)cc1 (stereo not drawn),CC50,[1],13.1 µM (active)
same,EC50,[2],24 µM (active)
same,IC50,[3],12 µM (not active)
same,IC50,[4],> 49.8 µM (not active)
same,IC50,[5],3.46 µM (active)
same,IC50,[6],1.15 µM (active)
same,EC50,[7],8.7 µM (active)
same,IC50,[8],25 µM (active)
same,CC50,[9],23.4 µM (active)
same,AC50,[10],10.3 µM (active)
CC1OC(Nc2cccc3ccccc23)C(O)C(O)C1O (stereo not drawn),AC50,[11],9.24 µM (active)
O=C1C=C(Nc2ccccc2)c2ccccc2C1=O,IC50,[12],1.47 µM (active)
same,IC50,[13],20.7 µM (active)
